{"source": "PubChem BioAssay AID2060900", "about": "(Molecular Pharmacology Branch, DTP, NCI, 2025);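 note: compound exposure lasted seven days before the viability read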;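 for viability, T/C: spheroids also contain HUVEC endothelial cells and mesenchymal stem cells as stroma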", "test_system": "521955-158-R2-J5-PDC complex spheroids, viability", "test": "Anticancer human tumor 521955-158-R2-J5-PDC patient-derived pancreatic carcinoma cell line growth inhibition [RAS]", "conditions": "for IC50: curve of first compound; for viability, T/C: stronger effect = lower value", "from_the_text": "RAS pathway inhibitors in Combinations in Complex Spheroids\nA high-throughput screen of multi-cell type tumor spheroids was designed to identify active combinations of RAS pathway inhibitors and targeted small molecules. Complex spheroids include a stromal component modeled by human endothelial cells (HUVEC) and fibroblasts modeled by human mesenchymal stem cells (MSCs). The concentration ranges selected for each drug and investigational agent were based upon clinically achievable concentrations if the clinical Cmax of the agent was known.\nCompounds. The drugs and investigational agents: abemaciclib (NSC768073), cobimetinib (NSC768068), divarasib (GDC6063, NSC841802), docetaxel (NSC628503), GDC-1971 (RLY-1971, NSC841576), gemcitabine (NSC613327), inavolisib (NSC800729), ipatasertib (NSC767898), KB-0742 (NSC834161), MRTX-1133 (NSC836407), osimertinib (NSC779217), RMC-4630 (NSC839698), RMC-6236 (NSC851965), RMC-6291 (NSC852671), Ro-3306 (NSC812927), sapanisertib (NSC764658), SN-38 (NSC673596), staurosporine (NSC755774), SY5609 (NSC837396), and tovorafenib (DAY101, NSC766906), were obtained from the National Cancer Institute (NCI) Developmental Therapeutics Program Chemical Repository. The FDA-approved anticancer drug set is available from the NCI Developmental Therapeutics Program. […] The stock solutions were prepared in dimethyl sulfoxide (DMSO, Sigma-Aldrich, St. Louis, MO, cat. D2650) at 800-fold the tested concentration and stored at -70 degrees C prior to their use. All drugs and investigational agents were tested over a range starting from a high concentration at or near the clinical Cmax and decreasing in half-log increments. If the clinical Cmax for an agent had not been determined, the highest concentration tested was 10 microM.\nCell Culture. All cells were maintained in an incubator at 37 degrees C and 5% CO2 with 95% humidity. The PDC lines were cultured according to standard operating procedures established by the NCI PDMR. All PDCs were thawed and cultured in Matrigel-coated flasks prepared with a working solution of 1X Ham's F-12 nutrient mix, without supplementation (Invitrogen, Waltham, MA, cat. 11765054), 100 U/mL penicillin-streptomycin (Invitrogen, cat. 15140122), and 2.5% Matrigel (Corning Inc., Corning, NY, cat. 354248) for the first three passages. The 362531-283-R-J2-PDC and 782815-120-R-J1-PDC lines were cultured in 6C/Colon 1B media, which includes advanced DMEM/F-12 (Thermo Fisher Scientific, cat. 12634028), 10 mM HEPES (Thermo Fisher Scientific, cat. 15630080), 1X GlutaMAX supplement (Thermo Fisher Scientific, cat. 35050061), 0.1 mg/mL primocin (InvivoGen, San Diego, CA, cat. ant-pm-2), 10% defined fetal bovine serum, heat inactivated (HyClone Laboratories Inc., Logan, UT, cat. SH30070.03HI), 50% L-WRN conditioned media (ATCC, cat. CRL-3276), 1.25 mM N-Acetyl-L-cysteine (Sigma-Aldrich, cat. A9165), 10 mM nicotinamide (Sigma-Aldrich, cat. N0636), 1X B-27 supplement (Thermo Fisher Scientific, cat. 17504044), 1X N-2 supplement (Thermo Fisher Scientific, cat. 17502048), 50 ng/mL human EGF (Thermo Fisher Scientific, cat. PHG0311), and 10 microM Y-27632 dihydrochloride (Tocris Bioscience, cat. 1254). The K12877-001-R-J1-PDC line was cultured in 6I media, which includes all 6C/Colon 1B media plus 10 ng/mL human FGF-10 (PeproTech, cat. 100-26), 1 ng/mL human FGF-2 (PeproTech, cat. 100-18B), 1 µM prostaglandin E2 (Tocris Bioscience, cat. 2296), […] hydrocortisone (Sigma-Aldrich, cat. H4001), and […] bovine insulin (Sigma-Aldrich, cat. I6634). The K86415-001-R-J1-PDC line was cultured in 6D media, which includes all 6C/Colon 1B media components minus the L-WRN conditioned media. The 485176-168-R4-J1-PDC was cultured in PANC media, which includes all 6C/Colon 1B media plus 100 ng/mL human FGF-10 (PeproTech, cat. 100-26), 500 nM SB-431542 (Selleckchem, cat. S1067), and 10 nM gastrin (Tocris Bioscience, cat. 3006). […]"}
{"smiles": "CC(C)NCC(C(=O)N1CCN(c2ncnc3c2C(C)CC3O)CC1)c1ccc(Cl)cc1", "note": "(configuration not stated) + C=CC(=O)N1CCN(c2nc(OCC3CCCN3C)nc3c(F)c(-c4nc(N)cc(C)c4C(F)(F)F)c(Cl)cc23)C(C)C1", "values": [{"measurement": "IC50", "setting": "second compound 0.00316 µM", "result": "> 10", "unit": "µM"}, {"measurement": "IC50", "setting": "second compound 0.01 µM", "result": "> 10", "unit": "µM"}, {"measurement": "IC50", "setting": "second compound 0.0316 µM", "result": "> 10", "unit": "µM"}, {"measurement": "IC50", "setting": "second compound 0.1 µM", "result": "> 10", "unit": "µM"}, {"measurement": "IC50", "setting": "second compound 0.316 µM", "result": "> 10", "unit": "µM"}, {"measurement": "IC50", "setting": "second compound 1 µM", "result": "> 10", "unit": "µM"}, {"measurement": "viability, T/C", "setting": "second compound 0.00316 µM, first compound 0.0316 µM", "result": 95.9, "unit": "%"}, {"measurement": "viability, T/C", "setting": "second compound 0.00316 µM, first compound 0.1 µM", "result": 93.2, "unit": "%"}, {"measurement": "viability, T/C", "setting": "second compound 0.00316 µM, first compound 0.316 µM", "result": 99, "unit": "%"}, {"measurement": "viability, T/C", "setting": "second compound 0.00316 µM, first compound 1 µM", "result": 79.7, "unit": "%"}, {"measurement": "viability, T/C", "setting": "second compound 0.00316 µM, first compound 3.16 µM", "result": 66.4, "unit": "%"}, {"measurement": "viability, T/C", "setting": "second compound 0.00316 µM, first compound 10 µM", "result": 54.6, "unit": "%"}, {"measurement": "viability, T/C", "setting": "second compound 0.01 µM, first compound 0.0316 µM", "result": 77, "unit": "%"}, {"measurement": "viability, T/C", "setting": "second compound 0.01 µM, first compound 0.1 µM", "result": 115, "unit": "%"}, {"measurement": "viability, T/C", "setting": "second compound 0.01 µM, first compound 0.316 µM", "result": 95.6, "unit": "%"}, {"measurement": "viability, T/C", "setting": "second compound 0.01 µM, first compound 1 µM", "result": 92.9, "unit": "%"}, {"measurement": "viability, T/C", "setting": "second compound 0.01 µM, first compound 3.16 µM", "result": 69.1, "unit": "%"}, {"measurement": "viability, T/C", "setting": "second compound 0.01 µM, first compound 10 µM", "result": 55, "unit": "%"}, {"measurement": "viability, T/C", "setting": "second compound 0.0316 µM, first compound 0.0316 µM", "result": 84.1, "unit": "%"}, {"measurement": "viability, T/C", "setting": "second compound 0.0316 µM, first compound 0.1 µM", "result": 101, "unit": "%"}, {"measurement": "viability, T/C", "setting": "second compound 0.0316 µM, first compound 0.316 µM", "result": 91.8, "unit": "%"}, {"measurement": "viability, T/C", "setting": "second compound 0.0316 µM, first compound 1 µM", "result": 94.7, "unit": "%"}, {"measurement": "viability, T/C", "setting": "second compound 0.0316 µM, first compound 3.16 µM", "result": 61.2, "unit": "%"}, {"measurement": "viability, T/C", "setting": "second compound 0.0316 µM, first compound 10 µM", "result": 55.1, "unit": "%"}, {"measurement": "viability, T/C", "setting": "second compound 0.1 µM, first compound 0.0316 µM", "result": 88.7, "unit": "%"}, {"measurement": "viability, T/C", "setting": "second compound 0.1 µM, first compound 0.1 µM", "result": 104, "unit": "%"}, {"measurement": "viability, T/C", "setting": "second compound 0.1 µM, first compound 0.316 µM", "result": 113, "unit": "%"}, {"measurement": "viability, T/C", "setting": "second compound 0.1 µM, first compound 1 µM", "result": 89, "unit": "%"}, {"measurement": "viability, T/C", "setting": "second compound 0.1 µM, first compound 3.16 µM", "result": 67.1, "unit": "%"}, {"measurement": "viability, T/C", "setting": "second compound 0.1 µM, first compound 10 µM", "result": 49.6, "unit": "%"}, {"measurement": "viability, T/C", "setting": "second compound 0.316 µM, first compound 0.0316 µM", "result": 105, "unit": "%"}, {"measurement": "viability, T/C", "setting": "second compound 0.316 µM, first compound 0.1 µM", "result": 138, "unit": "%"}, {"measurement": "viability, T/C", "setting": "second compound 0.316 µM, first compound 0.316 µM", "result": 92.4, "unit": "%"}, {"measurement": "viability, T/C", "setting": "second compound 0.316 µM, first compound 1 µM", "result": 72.1, "unit": "%"}, {"measurement": "viability, T/C", "setting": "second compound 0.316 µM, first compound 3.16 µM", "result": 59.6, "unit": "%"}, {"measurement": "viability, T/C", "setting": "second compound 0.316 µM, first compound 10 µM", "result": 49.9, "unit": "%"}, {"measurement": "viability, T/C", "setting": "second compound 1 µM, first compound 0.0316 µM", "result": 103, "unit": "%"}, {"measurement": "viability, T/C", "setting": "second compound 1 µM, first compound 0.1 µM", "result": 80.2, "unit": "%"}, {"measurement": "viability, T/C", "setting": "second compound 1 µM, first compound 0.316 µM", "result": 104, "unit": "%"}, {"measurement": "viability, T/C", "setting": "second compound 1 µM, first compound 1 µM", "result": 71.3, "unit": "%"}, {"measurement": "viability, T/C", "setting": "second compound 1 µM, first compound 3.16 µM", "result": 61.9, "unit": "%"}, {"measurement": "viability, T/C", "setting": "second compound 1 µM, first compound 10 µM", "result": 55.3, "unit": "%"}]}
